The subject of one assay is mouse Th17 polarization. Put plainly: Mouse Th17 polarization assay (IL-17a producing cells). It is filed as cell-based. Conditions: for IC50: naive mouse CD4 T cells, TGFβ and IL6, compounds added Day 1, analyzed Day 4, IL-17a producing cells, read-out: Th 17 IC50. The protocol: Effects of compound derivatives at various concentrations on mouse Th17 polarization. Percentage of DMSO treated IL-17a producing cells was set at 100. Naive mouse CD4 T cells (CD25^−, CD62L^+, and CD44^int-high) were sorted and cultured with CD3/CD28 stimulatory antibodies in the presence of TGFβ (0.1 ng/ml) and IL6 (20 ng/ml). Compounds were added on Day 1 and cells were analyzed on Day 4. For intracellular cytokine staining, cells were incubated for 5 h with phorbol ester (50 ng/ml; Sigma), ionomycin (500 ng/ml; Sigma) and GolgiStop (BD). When needed, surfaces were stained by incubation for 15 min on ice with PECy7-conjugated CD4 (BD Biosciences). The Cytofix/Cytoperm buffer set (BD) was used for intracellular staining. Cells were fixed and made permeable for 30 min on ice and were stained for 30 min on ice in permeabilization buffer with Alexa647-conjugated anti-IL17 (eBioscience) and PE-conjugated anti-IFNg (eBioscience). An LSR II (BD Biosciences) and FlowJo software (Tree Star) were used for flow cytometry. RORg IC50 value acquired from the S2 cell reporter assay is listed for comparison.
Naive CD4 T cells (CD25^−, CD62L^+, and CD44^int-high) were sorted and cultured with CD3/CD28 stimulatory antibodies in the presence of TGFβ (0.1 ng/ml) and IL6 (20 ng/ml). Compounds were added on Day 1 and cells were analyzed on Day 4. For intracellular cytokine staining, cells were incubated for 5 h with phorbol ester (50 ng/ml; Sigma), ionomycin (500 ng/ml; Sigma) and GolgiStop (BD). When needed, surfaces were stained by incubation for 15 min on ice with PECy7-conjugated CD4 (BD Biosciences). The Cytofix/Cytoperm buffer set (BD) or FoxP3 staining kit (eBioscience) were used for intracellular staining. Cells were fixed and made permeable for 30 min on ice and were stained for 30 min on ice in permeabilization buffer with Alexa647-conjugated anti-IL17 (eBioscience), PE-conjugated anti-IFNg (eBioscience), and/or PE-conjugated anti-FoxP3 (eBioscience). An LSR II (BD Biosciences) and FlowJo software (Tree Star) were used for flow cytometry.

For the next assay, the target named is RORγt (Mus musculus, UniProt P51450, T352K). The assay is described as follows: RORγt S2 cell Gal4-luciferase reporter assay. As to conditions: for Emax: read-out: Efficacy (%). For orientation: A reporter such as luciferase makes a cellular process visible.
[1] abbreviates: IC50(μM), Drosophila S2 cells, Gal4-RORγt luciferase reporter, 20 hr.
Setting [2] is: S2 cell RORg IC50 μM, S2 cell reporter assay, listed for comparison.

Sequence of RORγt (P51450 with tags, fused parts or gaps T352K): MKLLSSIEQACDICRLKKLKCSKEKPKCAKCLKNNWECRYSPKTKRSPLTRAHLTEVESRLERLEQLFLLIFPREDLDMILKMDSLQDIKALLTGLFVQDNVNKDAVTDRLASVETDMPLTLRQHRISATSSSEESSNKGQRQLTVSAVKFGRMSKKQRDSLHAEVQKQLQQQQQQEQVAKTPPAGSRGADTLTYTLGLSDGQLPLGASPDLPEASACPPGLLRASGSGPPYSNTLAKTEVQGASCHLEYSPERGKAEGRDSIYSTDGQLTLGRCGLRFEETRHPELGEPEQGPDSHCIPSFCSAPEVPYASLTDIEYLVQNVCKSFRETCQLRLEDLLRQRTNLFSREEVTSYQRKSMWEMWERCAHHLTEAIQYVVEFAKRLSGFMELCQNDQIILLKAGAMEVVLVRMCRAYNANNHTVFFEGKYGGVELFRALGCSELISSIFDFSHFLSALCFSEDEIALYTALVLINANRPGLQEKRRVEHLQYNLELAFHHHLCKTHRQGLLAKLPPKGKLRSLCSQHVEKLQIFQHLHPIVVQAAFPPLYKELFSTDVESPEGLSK
Description for RORγt: Methods: The Drosophila S2 cell line was originally purchased from Invitrogen and was maintained in Schneider's medium supplemented with 10% heat-inactivated bovine fetal calf serum and antibiotics (Invitrogen). […] The resulting chimeric gene was subcloned into the copper inducible pMT/V5-His A vector (available from Invitrogen).
In order to generate stable cell lines, cells were co-transfected with pMT-G4DBD-RORγt, pMT-G4DBD-RORα, pMT-G4DBD-DHR3, or pMT-G4DBDVP16 and pHygro plasmids (Invitrogen) and screened for resistant colonies in the presence of hygromycin (0.3 mg/mL).
Methods: 600 G4DBD-RORγ/γt-luc reporter (#25) or G4DBD-VP16-luc reporter cells were distributed into each well of 1,536-well white bottom plates in 4 μl S2 cell culture volume containing hygromicin (300 μg/ml) and puromycin (2 μg/ml). […] After one-hour incubation, 1 μl of culture medium solution containing copper sulfate (to final 0.7 mM) and 10 μM RORγ/γt antagonists were added to each well. After 20-hour incubation at ambient temperature, 1.5 μl firefly luciferase detection mix was added and the luciferase activities were measured in 10 min. ViewLux luminometers were used for measuring luciferase signal.
Since their cognate DNA binding sites were not well characterized, the DNA binding domains (DBD) of RORγ/γt, RORα (mouse homolog for POPγ), and DHR3 (Drosophila orthologue for ROR family proteins) were replaced with the heterologous yeast GAL4 DBD. The transcriptionally active domain of general transcriptional activator VP16 was also fused with GAL4 DBD. The GAL4 fusion constructs were placed under the control of a copper inducible promoter, and stable S2 cell lines with genomic integration of these four reporter constructs were generated. The copper inducible promoter ensures tight regulation of GAL4-fusion protein expression and it allows small molecules to get into the cells prior to protein induction, thus increasing their effects on GAL4 reporters. The stable reporter cell lines also encode the firefly luciferase reporter, whose expression is regulated by five copies of the GAL4 binding site enhancer (UAS), along with the pol III-driven Renilla luciferase reporter.
A cell-based reporter assay was used to detect RORγt-mediated activity. This assay, called RORγt□ employed Drosophila Schneider cells that were stably transfected with two vectors: a gene expressing a fusion of the Gal4 DNA binding domain and RORγt transactivation domain under the control of the metallothionine promoter and a Photinus luciferase reporter regulated by the Gal4 binding site enhancer, UAS. […] Cells (600/well) were dispensed into white solid 1536-well plates (Greiner) using a solenoid-based dispenser. Following transfer of 23 nL compound or DMSO vehicle by a pin tool, the plates were incubated 1 hr at ambient temperature, and 1 uL/well copper sulfate (700 uM final concentration) was added. The plates were centrifuged 15 s at 1000 RPM and incubated 20 hr at ambient temperature. After addition of 1.5 uL Photinus luciferase detection reagent, the plates were incubated 10 min at ambient temperature and then read by a ViewLux (Perkin Elmer) to detect luminescence. […] Efficacy is expressed as % of the maximal response of control inhibitor (Digoxin), set at 100%.

Take `COc1cc(O)c([C@@H](CC(=O)N2CC(C)CC(C)C2)c2ccc3c(c2)OCO3)c(OC)c1` (single isomer, unassigned; (-)) [Compound 35]: the IC50 in the assay with mouse Th17 polarization was below 1 µM. Moreover, the Emax at RORγt turned out to be 91%.

As to `COc1cc(O)c(C(CC(=O)N2CCC(C)CC2)c2ccc3c(c2)OCO3)c(OC)c1` (stereo not drawn) [Compound 1], in the assay on mouse Th17 polarization, the IC50 is above 20 µM.

Regarding `COc1cc(O)c(C(CC(=O)N2CCCC(C)(C)C2)c2ccc3c(c2)OCO3)c(OC)c1` (stereo not drawn) [Compound 8], the concentration for half-maximal inhibition (IC50) with mouse Th17 polarization was 1 to 10 µM.

As to `COc1cc(O)c(C(CC(=O)N2CC(C)CC(C)C2)c2ccc3c(c2)OCO3)c(OC)c1` (stereo not drawn) [Compound 22], the concentration for half-maximal inhibition (IC50) in the assay on mouse Th17 polarization was below 1 µM. Also, at RORγt, the Emax is 97.7%.

`COc1cc(O)c(C(CC(=O)N2CC(C)OC(C)C2)c2ccc3c(c2)OCO3)c(OC)c1` (stereo not drawn) [Compound 41]: the IC50 with mouse Th17 polarization is below 1 µM.

Turning to `COc1cc(O)c(C(CC(=O)N2CC(C)NC(C)C2)c2ccc3c(c2)OCO3)c(OC)c1` (stereo not drawn) [Compound 42], the IC50 was above 20 µM in the assay on mouse Th17 polarization, above 50 µM on RORγt (setting [1]) and above 20 µM against RORγt (setting [2]).

For `COc1cc(O)c(C(CC(=O)N2CCCC(C(F)(F)F)C2)c2ccc3c(c2)OCO3)c(OC)c1` (stereo not drawn) [Compound 43], the concentration for half-maximal inhibition (IC50) in the assay on mouse Th17 polarization lay in the range of 1 to 10 µM.

On to `COc1cc(O)c(C(CC(=O)N2CCCC(C)C2)c2ccc(C)cc2)c(OC)c1` (stereo not drawn) [Compound 57], for which the IC50 with mouse Th17 polarization, on RORγt (setting [1]) and against RORγt (setting [2]) was 1 to 10 µM in each case. For the same compound, the Emax on RORγt was found to be 97%.

For the compound `COc1ccc(C(CC(=O)N2CCCC(C)C2)c2c(O)cc(OC)cc2OC)cc1` (stereo not drawn) [Compound 60], the IC50 in the assay with mouse Th17 polarization, at RORγt (setting [1]) and on RORγt (setting [2]) was 1 to 10 µM in each case. Also, on RORγt, the Emax turned out to be 91.7%.

For `COc1cc(O)c(C(CC(=O)N2CCCC(C)C2)c2ccccc2)c(OC)c1` (stereo not drawn) [Compound 61], the concentration for half-maximal inhibition (IC50) with mouse Th17 polarization was above 20 µM; on RORγt (setting [1]) it was 1 to 10 µM; on RORγt (setting [2]), 1 to 10 µM. Also, the Emax on RORγt was 95.4%.

As to `COc1cc(O)c(C(CC(=O)N2CCCC(C)C2)c2ccccc2C)c(OC)c1` (stereo not drawn) [Compound 63], the IC50 was above 20 µM in the assay with mouse Th17 polarization, 1 to 10 µM on RORγt (setting [1]) and 1 to 10 µM on RORγt (setting [2]). Also, at RORγt, the Emax is 93.5%.

For the compound `COc1ccc(C(CC(=O)N2CCCC(C)C2)c2c(O)cc(OC)cc2OC)c(OC)c1` (stereo not drawn) [Compound 69], the IC50 with mouse Th17 polarization is above 20 µM; at RORγt (setting [1]), 11 to 50 µM; against RORγt (setting [2]), above 20 µM. In addition, the Emax on RORγt worked out at 45.6%.

On to `COc1cc(O)c(C(CC(=O)N2CC(C)CC(C)C2)c2ccc(N(C)C)cc2)c(OC)c1` (stereo not drawn) [Compound 72], for which the IC50 with mouse Th17 polarization was below 1 µM; against RORγt (setting [1]) it was 1 to 10 µM; against RORγt (setting [2]), 1 to 10 µM. In addition, on RORγt, the Emax stood at 96.8%.

As for `COc1cc(O)c(C(CC(=O)N2CC(C)CC(C)C2)c2ccc(C)cc2)c(OC)c1` (stereo not drawn) [Compound 73], in the assay on mouse Th17 polarization, the IC50 is below 1 µM.

With `COc1ccc(C(CC(=O)N2CC(C)CC(C)C2)c2c(O)cc(OC)cc2OC)cc1` (stereo not drawn) [Compound 74], in the assay with mouse Th17 polarization, the IC50 is below 1 µM.

`COc1cc(O)c(C(CC(=O)N2CC(C)CC(C)C2)c2ccc(O)cc2)c(OC)c1` (stereo not drawn) [Compound 75]: the IC50 in the assay on mouse Th17 polarization was below 1 µM; against RORγt (setting [1]) it was 1 to 10 µM; on RORγt (setting [2]), 1 to 10 µM. Moreover, the Emax at RORγt was found to be 93.8%.

As for `COc1cc(O)c(C(CC(=O)N2CC(C)CC(C)C2)c2ccc3c(c2)OCCO3)c(OC)c1` (stereo not drawn) [Compound 76], the IC50 with mouse Th17 polarization is below 1 µM; against RORγt (setting [1]) it was below 1 µM; on RORγt (setting [2]), 1 to 10 µM. Besides, the Emax at RORγt stood at 95.4%.

As for `COc1ccc(C(CC(=O)N2CCCC(C)C2)c2ccc3c(c2)OCO3)c(O)c1` (stereo not drawn) [Compound 115], the IC50 in the assay with mouse Th17 polarization was above 20 µM.

`COc1cc(OC)c(C(CC(=O)N2CCCC(C)C2)c2ccc3c(c2)OCO3)c(OC)c1` (stereo not drawn) [Compound 120, 3-(Benzo[d][1,3]dioxol-5-yl)-1-(3-methylpiperidin-1-yl)-3-(2,4,6-trimethoxyphenyl)propan-1-one]: the half-maximal inhibitory concentration (IC50) in the assay on mouse Th17 polarization fell in the range of 1 to 10 µM.

For `COc1cccc(O)c1C(CC(=O)N1CCCC(C)C1)c1ccc2c(c1)OCO2` (stereo not drawn) [Compound 121], in the assay on mouse Th17 polarization, the 50% inhibitory concentration (IC50) is above 20 µM.

On to `COc1cc(OC)c(C(CC(=O)N2CC(C)CC(C)C2)c2ccc3c(c2)OCO3)c(OC)c1` (stereo not drawn) [Compound 134], for which the 50% inhibitory concentration (IC50) with mouse Th17 polarization was below 1 µM; at RORγt (setting [1]), 1 to 10 µM; at RORγt (setting [2]) it was 1 to 10 µM. Further, at RORγt, the Emax amounted to 96.4%.

Turning to `COCOc1cc(OC)cc(OC)c1C(CC(=O)N1CC(C)CC(C)C1)c1ccc2c(c1)OCO2` (stereo not drawn) [Compound 135], the IC50 in the assay with mouse Th17 polarization, against RORγt (setting [1]) and against RORγt (setting [2]) was 1 to 10 µM throughout. The Emax on RORγt amounted to 96.5%.

As to `COc1cc(OC)c(C(CC(=O)N2CC(C)CC(C)C2)c2ccc3c(c2)OCO3)c(OCC#N)c1` (stereo not drawn) [Compound 136], the IC50 in the assay with mouse Th17 polarization, on RORγt (setting [1]) and against RORγt (setting [2]) was 1 to 10 µM in each case. In addition, on RORγt, the Emax came out at 90%.

For the compound `CC1CC(C)CN(C(=O)CC(c2ccc3c(c2)OCO3)c2c(O)ccc3ccccc23)C1` (stereo not drawn) [Compound 138], the IC50 in the assay on mouse Th17 polarization fell in the range of 1 to 10 µM.

`COc1cc(OC)c(C(c2ccccc2)C(C)(C)C(=O)N2CC(C)CC(C)C2)c(OC)c1` (stereo not drawn) [Compound 149, 1-(3,5-Dimethylpiperidin-1-yl)-2,2-dimethyl-3-phenyl-3-(2,4,6-trimethoxyphenyl)propan-1-one]: the half-maximal inhibitory concentration (IC50) against RORγt (setting [1]) and against RORγt (setting [2]) was 1 to 10 µM throughout. For the same compound, the Emax on RORγt came out at 93.8%.

`COc1cc(OC)c(C(c2ccccc2)C(C)(C)C(=O)N2CC(C)OC(C)C2)c(OC)c1` (stereo not drawn) [Compound 150] came in with a half-maximal inhibitory concentration (IC50) on RORγt (setting [1]) of 1 to 10 µM. Also, the Emax at RORγt stood at 91.6%.

Take `COc1cc(OC)c(C(c2ccccc2)C(C)(C)C(=O)N2CC3CC4CC(C3)CC2C4)c(OC)c1` (stereo not drawn) [Compound 151]: the 50% inhibitory concentration (IC50) at RORγt (setting [1]) was above 50 µM. For the same compound, the Emax on RORγt was found to be 118%.

With `COc1cc(OC)c(C(c2ccccc2)C(C)(C)C(=O)N2CC3CCC2C3)c(OC)c1` (stereo not drawn) [Compound 152], the IC50 on RORγt (setting [1]) lay in the range of 11 to 50 µM. Moreover, the Emax on RORγt was determined as 50.7%.

Regarding `COc1cc(OC)c(C(c2ccccc2)C(C)(C)C(=O)N2C3CCC2CC3)c(OC)c1` (stereo not drawn) [Compound 153], at RORγt (setting [1]), the IC50 is 1 to 10 µM. In addition, the Emax on RORγt amounted to 36.5%.

At RORγt (setting [1]), `COc1cc(OC)c(C(c2ccccc2)C(C)(C)C(=O)NC2CC(C)(C)CC(C)(C)C2)c(OC)c1` (stereo not drawn) [Compound 154] had an IC50 above 50 µM.

For `CCCN(C(=O)C(C)(C)C(c1ccccc1)c1c(OC)cc(OC)cc1OC)C1CCCC(C)C1` (stereo not drawn) [Compound 155], the concentration for half-maximal inhibition (IC50) against RORγt (setting [1]) was above 50 µM.

On to `COc1ccc2ccccc2c1C(c1ccc(F)cc1)C(C)(C)C(=O)N1CC(C)OC(C)C1` (stereo not drawn) [Compound 156], for which, at RORγt (setting [1]), the IC50 lay in the range of 11 to 50 µM. The Emax on RORγt is 99.9%.

`COc1ccc2ccccc2c1C(c1ccc(F)cc1)C(C)(C)C(=O)N1CC(C)CC(C)C1` (stereo not drawn) [Compound 157] yielded a concentration for half-maximal inhibition (IC50) against RORγt (setting [1]) of 1 to 10 µM. Moreover, the Emax on RORγt stood at 94.4%.

With `COc1cc(O)c(C(CC(=O)N2CCCCC2)c2ccc3c(c2)OCO3)c(OC)c1` (stereo not drawn) [NCGC00166488], the “mouse Th17 cell differentiation, as measured by IL17a production” value in the assay on mouse Th17 polarization (20 μM, compared to DMSO treated cells, FACS (FIG. 3)) was “suppress mouse Th17 cell differentiation”.

With “N-(3-(3-(3,5-Dimethylpiperidin-1-yl)-1-(2-hydroxy-4,6-dimethoxyphenyl)-3-oxopropyl)phenyl)methanesulfonamide [Compound 82]”, the “Efficacy (%)” value at RORγt (% of the maximal response of control inhibitor (Digoxin), set at 100%) is listed as −95.39%. This compound had an IC50 against RORγt (Drosophila S2 cells, Gal4-RORγt luciferase reporter, 20 hr) below 1 µM.

Usually IC50 stands for the concentration that gives 50% inhibition.

(Values after patent publication US10561666B2, “Amido compounds as RORγt modulators and uses thereof” (New York University, priority 2010, dated 2020).)
